Read-outs that look alike come from different tables or passages of the source.
Tests used:
NCI-H1944 = assay: In vitro proliferation assay, NSCLC cell line NCI-H1944; type: cell-based; conditions: Homo sapiens, 72 hours of drug exposure, read-out: 3424 IC50
Experimental: (§1) IC50 was calculated as described above.

recombinant human AKR1C3 = target: T1, recombinant human AKR1C3 (Homo sapiens, UniProt P42330); assay: AKR1C3-dependent activation of 3424 (2660 production, LC-MS/MS); type: biochemical; conditions: incubation with AKR1C3, n = 3, mean ± SD
T1 construct: purchased Abcam (Cambridge, MA)
T1 sequence (P42330 1-323): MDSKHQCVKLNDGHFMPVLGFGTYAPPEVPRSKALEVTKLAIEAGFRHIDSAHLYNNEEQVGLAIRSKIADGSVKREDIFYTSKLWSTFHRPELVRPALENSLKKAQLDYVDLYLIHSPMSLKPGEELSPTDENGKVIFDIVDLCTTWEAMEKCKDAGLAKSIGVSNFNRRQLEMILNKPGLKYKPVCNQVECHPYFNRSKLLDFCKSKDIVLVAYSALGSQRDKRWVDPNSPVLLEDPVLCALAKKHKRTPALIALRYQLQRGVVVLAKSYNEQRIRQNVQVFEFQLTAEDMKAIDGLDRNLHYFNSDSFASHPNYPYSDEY
Experimental: The reaction was incubated at 25° C. and terminated at various time points by adding acetonitrile and methanol (at a ratio of 9 to 1) and subjected for LC-MS/MS analysis. For enzyme kinetic analysis, the activity was determined with a SpectraMax M2^e spectrophotometer (Molecular Devices, LLC, San Jose, CA) by measuring the decrease in absorbance of the NADPH at 340 nm (E=6270 M^−1 cm^−1). After the initiation of the reaction by addition of substrates, the reactions were monitored at 30 s intervals at 25° C. The non-substrate reaction rate was also monitored as background and its slope was used to determine the initial velocity of the reaction. The kinetic data reported were the average of triplicate measurements. For AKR1C3-mediated 3424 metabolism, LC/MS/MS was performed using a Sciex API-4000 Qtrap (ABSciex, LLC, Framingham, MA) mass spectrometer coupled to an Agilent 1200 HPLC system (Agilent Technologies, Santa Clara, CA). […] The column oven temperature was 40° C. and the sample injection volume was 2 μL. The mass spectra were obtained in positive MRM mode. In positive ion mode, the ion spray voltage was set at 4500 V, declustering potential at 80 V, collision energy at 20 V, source temperature at 350° C., curtain gas at 10 psi and the source gas 1 and 2 both at 60 psi. […] For 2660 analysis, normal phase liquid chromatographic separation was performed with Waters Atlantis HILIC Silica column (2.1 mm×100 mm, 3 μm, Waters Corp., Milford, MA) in a total run time of 9 min using a flow rate of 0.3 mL/min. The mobile phase A consisted of 1 mM ammonium formate in water and mobile phase B using ACN. […] The column oven temperature was 40° C. and the sample injection volume was 2 μL. The mass spectra were obtained in negative MRM mode. In negative ion mode, the ion spray voltage was set at −4500 V, declustering potential at −60 V, collision energy at −30 V, source temperature at 350° C., curtain gas at 10 psi and the source gas 1 and 2 both at 60 psi. […] The peak area ratio for each MRM transition (peak area of analyte/peak area of analyte-IS) of calibration standards and samples were used for quantitative analysis using Analyst 1.6 software (ABSciex, Framingham, MA).

SNU-475 = assay: In vitro proliferation assay, liver cancer cell line SNU-475; type: cell-based; conditions: Homo sapiens, 96 hours of drug exposure, AKR1C3 protein high, read-out: 3424 IC50
Experimental: as §1

PLC/PRF/5 = assay: In vitro proliferation assay, liver cancer cell line PLC/PRF/5; type: cell-based; conditions: Homo sapiens, 96 hours of drug exposure, AKR1C3 protein Medium, read-out: 3424 IC50
Experimental: as §1

recombinant human AKR1C1 = target: T2, recombinant human AKR1C1 (Homo sapiens, UniProt Q04828); assay: Incubation of 3424 with AKR1C1 (2660 production, LC-MS/MS); type: biochemical
T2 construct: purchased Sigma
T2 sequence (Q04828 whole entry): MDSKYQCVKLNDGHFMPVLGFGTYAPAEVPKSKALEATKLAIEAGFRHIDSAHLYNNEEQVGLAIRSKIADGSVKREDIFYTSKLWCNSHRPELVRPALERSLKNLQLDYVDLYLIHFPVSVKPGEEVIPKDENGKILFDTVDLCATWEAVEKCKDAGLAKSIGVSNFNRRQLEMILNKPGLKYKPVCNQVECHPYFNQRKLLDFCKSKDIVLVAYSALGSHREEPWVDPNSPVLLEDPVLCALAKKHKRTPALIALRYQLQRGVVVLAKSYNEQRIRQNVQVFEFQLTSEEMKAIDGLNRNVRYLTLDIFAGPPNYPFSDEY

NCI-H1792 = assay: In vitro proliferation assay, NSCLC cell line NCI-H1792; type: cell-based; conditions: Homo sapiens, 72 hours of drug exposure, read-out: 3424 IC50
Experimental: as §1

A498 xenograft = test system: A498 xenograft
Experimental: (§2) Death and observed clinical signs were recorded on the basis of the numbers of animals within each subset.

SNU-16 xenograft = test system: SNU-16 xenograft
Experimental: as §2

VCaP xenograft = assay: Castration-resistant prostate cancer VCaP xenograft model
Experimental: as §2

SNU-449 = assay: In vitro proliferation assay, liver cancer cell line SNU-449; type: cell-based; conditions: Homo sapiens, 96 hours of drug exposure, AKR1C3 protein high, read-out: 3424 IC50
Experimental: as §1

H460 cells = assay: Cytotoxicity in H460 cells in the absence or presence of AKR1C3 inhibitor 3021; conditions: Homo sapiens, NCI-H460, 2 h, read-out: IC50 (cytotoxicity)
Experimental: Exponentially growing cells were seeded 24 hours before the addition of test compounds. After addition of test compounds, the plates were incubated for the indicated hours at 37° C. in a standard tissue culture incubator. At the end of the experiment, the viable cells were detected using either a CellTiter Glo (CTG) assay kit or AlamarBlue^(28,29). […] For 3021 experiments, cells were pretreated with 3 μM of 3021 for 2 h prior to compound treatment under air. IC50 was calculated as described above.

SK-HEP-1 = assay: In vitro proliferation assay, liver cancer cell line SK-HEP-1; type: cell-based; conditions: Homo sapiens, SK-HEP1, 96 hours of drug exposure, AKR1C3 protein Low, read-out: 3424 IC50
Experimental: as §1

GA6201 PDX = assay: Gastric cancer PDX model GA6201; type: in vivo, mice
Experimental: Anti-tumor activity of 3424 in PDX models was assessed at CrownBio Bioscience (Beijing, China) Inc. using female BALB/c nude mice (6-7 weeks old, Beijing Anikeeper Biotech Co., Ltd, Beijing, China). Tumor fragments (PA1280, GA6201, LU2057 and LU2505) from stock mice inoculated with selected primary human cancer tissues (pancreatic, gastric cancer, and lung) were harvested and used for inoculation into BALB/c nude mice. Each mouse was inoculated subcutaneously for tumor development. Mice were allocated randomly into experimental groups when the average tumor size reached ˜100 mm^3) by using StudyDirector™ Ver 3.1.399.19 (Studylog Systems, Inc., S. San Francisco, CA, USA). Prodrug 3424 was administered IV at the indicated doses with a regimen of Q7D×3. Each group consisted of 5-6 mice. The grouping day was denoted as Day 0. Prodrug 3424 was administrated to the tumor-bearing mice from Day 0 through Days as indicated for each study.

NCI-H522 = assay: In vitro proliferation assay, NSCLC cell line NCI-H522; type: cell-based; conditions: Homo sapiens, 72 hours of drug exposure, read-out: 3424 IC50
Experimental: as §1

C3A = assay: In vitro proliferation assay, liver cancer cell line C3A; type: cell-based; conditions: Homo sapiens, 96 hours of drug exposure, AKR1C3 protein high, read-out: 3424 IC50
Experimental: as §1

[1] = 3424 2.5 mg/kg weekly IV for 4 doses

Q: With `C[C@H](OP(=O)(N1CC1)N1CC1)c1ccc([N+](=O)[O-])c(Oc2cccc(C(=O)N(C)C)c2)c1` [Compound 3424, (S)-1-(3-(3-N,N-dimethylaminocarbonyl)phenoxyl-4-mtrophenyl)-1-ethyl-N,N′-bis(ethylene)phosphoramidate] as the molecule, how does the IC50 (NCI-H1944) read?
A: The IC50 was 2.3 nM.

Q: What about the “2660 Concentration” value (recombinant human AKR1C3; 3424 concentration 10 μM) of the same molecule?
A: Its value is 10.71 ± 0.53 µM.

Q: What about the “2660 Concentration” value (recombinant human AKR1C3; 3424 concentration 20 μM) of the same molecule?
A: The value was 14.77 ± 1.44 µM.

Q: What about the “2660 Concentration” value (recombinant human AKR1C3; 3424 concentration 30 μM) of the same molecule?
A: The value was 33.96 ± 1.90 µM.

Q: What about the “2660 Concentration” value (recombinant human AKR1C3; 3424 concentration 40 μM) of the same molecule?
A: The value was 34.30 ± 6.63 µM.

Q: What about the “2660 Concentration” value (recombinant human AKR1C3; 3424 concentration 50 μM) of the same molecule?
A: The value was 34.59 ± 7.44 µM.

Q: And the IC50 (SNU-475)?
A: The IC50 was 15 nM.

Q: What about the IC50 (PLC/PRF/5) of the same molecule?
A: Its IC50 is 167 nM.

Q: And the “metabolism by AKR1C1” value (recombinant human AKR1C1)?
A: The value was “not metabolized”.

Q: And the “2660 Concentration” value (recombinant human AKR1C1; 3424 concentration 50 μM, incubation with AKR1C1, BQL: below quantification limit (0.25 ng/mL))?
A: Its value is “BQL”.

Q: And the IC50 (NCI-H1792)?
A: Its IC50 is 4.5 nM.

Q: And the TGI (A498 xenograft; [1])?
A: Its TGI is 73%.

Q: And the “tolerability / body weight loss during treatment” value (A498 xenograft; A498 model, data not shown)?
A: The value was “no significant body weight loss”.

Q: What about the TGI (SNU-16 xenograft; [1]) of the same molecule?
A: Its TGI is 87.8%.

Q: And the TGI (SNU-16 xenograft; 3424 5 mg/kg weekly IV for 4 doses)?
A: Its TGI is 96.2%.

Q: And the “tolerability / body weight loss during treatment” value (SNU-16 xenograft; SNU-16 model, data not shown)?
A: Its value is “no significant body weight loss”.

Q: And the TGI (VCaP xenograft; 3424 5 mg/kg weekly IV for 5 doses, castrated male BALB/c nude mice)?
A: Its TGI is 148%.

Q: What about the “tolerability / body weight loss during treatment” value (VCaP xenograft; VCaP model, data not shown) of the same molecule?
A: Its value is “no significant body weight loss”.

Q: What about the IC50 (SNU-449) of the same molecule?
A: Its IC50 is 45 nM.

Q: And the IC50 (H460 cells)?
A: Its IC50 is 4 nM.

Q: What about the IC50 (SK-HEP-1) of the same molecule?
A: The IC50 was greater than 1000 nM.

Q: And the TGI (GA6201 PDX; 3424 5 mg/kg i.v. Q7D × 3)?
A: Its TGI is 110%.

Q: What about the “mice remaining tumor free” value (GA6201 PDX; 3424 5 mg/kg, at the end of the study) of the same molecule?
A: The value was 60%.

Q: What about the “tolerability / body weight loss” value (GA6201 PDX; GA6201, all tested doses) of the same molecule?
A: The value was “no body weight loss”.

Q: What about the IC50 (NCI-H522) of the same molecule?
A: Its IC50 is greater than 1000 nM.

Q: And the IC50 (C3A)?
A: Its IC50 is 5 nM.

Reference: patent publication US20240316079A1, “USE OF AKR1C3-ACTIVATED COMPOUND” (OBI PHARMA, INC., priority 2021, published 2024)
